Measurements as given in ChEMBL document CHEMBL4619709, “Synthesis and in-vitro anti-cancer evaluations of multi-methoxylated asymmetrical diarylpentanoids as intrinsic apoptosis inducer against colorectal cancer” (Bioorg Med Chem Lett, 2020).
The source made the active and inactive calls. The rule behind the calls is not given here.

Assays:
RKO [1] = assay: Induction of apoptosis in human RKO cells assessed as increase in bax protein expression after 24 to 72 hrs by Western blot analysis; type: functional, cell-based
RKO [2] = assay: Induction of apoptosis in human RKO cells assessed as increase in bad protein expression after 24 to 72 hrs by Western blot analysis; type: functional, cell-based
RKO [3] = assay: Induction of apoptosis in human RKO cells assessed as reduction in bcl-xl expression after 72 hrs by Western blot analysis; type: functional, cell-based
RKO [4] = assay: Induction of apoptosis in human RKO cells assessed as reduction in bcl-xl expression after 24 hrs by Western blot analysis; type: functional, cell-based
RKO [5] = assay: Induction of apoptosis in human RKO cells assessed as reduction in bcl-2 expression after 24 hrs by Western blot analysis; type: functional, cell-based
RKO [6] = assay: Induction of ROS generation in human RKO cells by fluorescence based assay; type: functional, cell-based
RKO [7] = assay: Induction of apoptosis in human RKO cells assessed as increase in caspase-9 expression after 24 to 72 hrs by Western blot analysis; type: functional, cell-based
RKO [8] = assay: Induction of apoptosis in human RKO cells assessed as reduction in procaspase-9 expression after 24 to 72 hrs by Western blot analysis; type: functional, cell-based
RKO [9] = assay: Induction of apoptosis in human RKO cells assessed as reduction in procaspase-7 expression after 24 to 72 hrs by Western blot analysis; type: functional, cell-based
RKO [10] = assay: Induction of apoptosis in human RKO cells assessed as reduction in procaspase-3 expression after 24 to 72 hrs by Western blot analysis; type: functional, cell-based
RKO [11] = assay: Induction of apoptosis in human RKO cells at 0.625 to 5 uM after by Annexin V-FITC/PI staining based flow cytometry; type: functional, cell-based; settings: TDE = time-dependent effect
RKO [12] = assay: Induction of apoptosis in human RKO cells after 24 to 72 hrs by Annexin V-FITC/PI staining based flow cytometry; type: functional, cell-based
RKO [13] = assay: Induction of cell cycle arrest in human RKO cells assessed as accumulation at G2/M phase at 2.5 uM after 24 hrs by PI-staining based flow cytometry (reference value: 20%); type: functional
RKO [14] = assay: Induction of cell cycle arrest in human RKO cells assessed as accumulation at S phase at 2.5 uM after 24 hrs by PI-staining based flow cytometry (reference value: 28%); type: functional
RKO [15] = assay: Induction of cell cycle arrest in human RKO cells assessed as accumulation at G0/G1 phase at 2.5 uM after 24 hrs by PI-staining based flow cytometry (reference value: 52%); type: functional
RKO [16] = assay: Induction of cell cycle arrest in human RKO cells assessed as accumulation at G2/M phase at 1.25 uM after 24 hrs by PI-staining based flow cytometry (reference value: 20%); type: functional
RKO [17] = assay: Induction of cell cycle arrest in human RKO cells assessed as accumulation at S phase at 1.25 uM after 24 hrs by PI-staining based flow cytometry (reference value: 28%); type: functional
RKO [18] = assay: Induction of cell cycle arrest in human RKO cells assessed as accumulation at G0/G1 phase at 1.25 uM after 24 hrs by PI-staining based flow cytometry (reference value: 52%); type: functional
RKO [19] = assay: Induction of cell cycle arrest in human RKO cells assessed as accumulation at G2/M phase at 0.625 uM after 24 hrs by PI-staining based flow cytometry (reference value: 20%); type: functional
RKO [20] = assay: Induction of cell cycle arrest in human RKO cells assessed as accumulation at S phase at 0.625 uM after 24 hrs by PI-staining based flow cytometry (reference value: 28%); type: functional
RKO [21] = assay: Induction of cell cycle arrest in human RKO cells assessed as accumulation at G0/G1 phase at 0.625 uM after 24 hrs by PI-staining based flow cytometry (reference value: 52%); type: functional
RKO [22] = assay: Inhibition of colony formation in human RKO cells after 9 days by crystal violet staining based assay; type: functional, cell-based
RKO [23] = assay: Inhibition of colony formation in human RKO cells at 0.625 uM treated for 9 days by crystal violet staining based assay; type: functional, cell-based
RKO [24] = assay: Inhibition of colony formation in human RKO cells at 1.25 to 5 uM after 9 days by crystal violet staining based assay; type: functional, cell-based
NCI-H508 [25] = assay: Antiproliferative activity against human NCI-H508 cells at 10 uM after 72 hrs by MTT assay; type: functional, cell-based
RKO [26] = assay: Antiproliferative activity against human RKO cells at 10 uM after 72 hrs by MTT assay; type: functional, cell-based
SW-620 [27] = assay: Antiproliferative activity against human SW620 cells at 10 uM after 72 hrs by MTT assay; type: functional, cell-based
HT-29 [28] = assay: Antiproliferative activity against human HT-29 cells at 10 uM after 72 hrs by MTT assay; type: functional, cell-based
LoVo [29] = assay: Antiproliferative activity against human LoVo cells at 10 uM after 72 hrs by MTT assay; type: functional, cell-based
T84 [30] = assay: Antiproliferative activity against human T84 cells at 10 uM after 72 hrs by MTT assay; type: functional, cell-based
[31] = Therapeutic index, ratio of IC50 for human NHDF cells to IC50 for human NCI-H508 cells after 72 hrs; type: toxicity; settings: NHDF cells versus NCI-H508 cells, read-out: Ratio IC50
[32] = Therapeutic index, ratio of IC50 for human NHDF cells to IC50 for human RKO cells after 72 hrs; type: toxicity; settings: NHDF cells versus RKO cells, read-out: Ratio IC50
[33] = Therapeutic index, ratio of IC50 for human NHDF cells to IC50 for human SW620 cells after 72 hrs; type: toxicity; settings: NHDF cells versus SW620 cells, read-out: Ratio IC50
[34] = Therapeutic index, ratio of IC50 for human NHDF cells to IC50 for human HT-29 cells after 72 hrs; type: toxicity; settings: NHDF cells versus HT-29 cells, read-out: Ratio IC50
[35] = Therapeutic index, ratio of IC50 for human NHDF cells to IC50 for human LoVo cells after 72 hrs; type: toxicity; settings: NHDF cells versus LoVo cells, read-out: Ratio IC50
[36] = Therapeutic index, ratio of IC50 for human NHDF cells to IC50 for human T84 cells after 72 hrs; type: toxicity; settings: NHDF cells versus T84 cells, read-out: Ratio IC50
NHDF = assay: Cytotoxicity against human NHDF cells assessed as reduction in cell viability; type: cell-based
NCI-H508 [37] = assay: Antiproliferative activity against human NCI-H508 cells assessed as reduction in cell viability after 72 hrs by MTT assay; type: functional, cell-based; settings: NCI-H508, 72 h
RKO [38] = assay: Antiproliferative activity against human RKO cells assessed as reduction in cell viability after 72 hrs by MTT assay; type: functional, cell-based
HT-29 [39] = assay: Antiproliferative activity against human HT-29 cells assessed as reduction in cell viability after 72 hrs by MTT assay; type: functional, cell-based; settings: HT-29, 72 h
SW-620 [40] = assay: Antiproliferative activity against human SW620 cells assessed as reduction in cell viability after 72 hrs by MTT assay; type: functional, cell-based; settings: SW-620, 72 h
LoVo [41] = assay: Antiproliferative activity against human LoVo cells assessed as reduction in cell viability after 72 hrs by MTT assay; type: functional, cell-based
T84 [42] = assay: Antiproliferative activity against human T84 cells assessed as reduction in cell viability after 72 hrs by MTT assay; type: functional, cell-based; settings: T84, 72 h

**Q.** With `COc1cc(/C=C2\CCC/C(=C\c3ccc(O)c(Cl)c3)C2=O)cc(OC)c1OC` as the molecule, how does the Activity (RKO [1]) read?
**A.** Active

**Q.** What about the Activity (RKO [2]) of the same molecule?
**A.** Active

**Q.** And the Activity (RKO [3])?
**A.** inactive

**Q.** And the Activity (RKO [4])?
**A.** Active

**Q.** And the Activity (RKO [5])?
**A.** Active

**Q.** And the Activity (RKO [6])?
**A.** Dose-dependent effect

**Q.** What about the Activity (RKO [7]) of the same molecule?
**A.** Active

**Q.** And the Activity (RKO [8])?
**A.** Active

**Q.** And the Activity (RKO [9])?
**A.** Active

**Q.** And the Activity (RKO [10])?
**A.** Active

**Q.** What about the Activity (RKO [11]) of the same molecule?
**A.** Tde

**Q.** And the Activity (RKO [12])?
**A.** Dose-dependent effect

**Q.** And the Activity (RKO [13])?
**A.** 50%

**Q.** And the Activity (RKO [14])?
**A.** 23%

**Q.** What about the Activity (RKO [15]) of the same molecule?
**A.** 27%

**Q.** And the Activity (RKO [16])?
**A.** 28%

**Q.** And the Activity (RKO [17])?
**A.** 20%

**Q.** And the Activity (RKO [18])?
**A.** 52%

**Q.** What about the Activity (RKO [19]) of the same molecule?
**A.** 21%

**Q.** What about the Activity (RKO [20]) of the same molecule?
**A.** 27%

**Q.** What about the Activity (RKO [21]) of the same molecule?
**A.** 52%

**Q.** And the inhibition (RKO [22])?
**A.** Dose-dependent effect

**Q.** What about the inhibition (RKO [23]) of the same molecule?
**A.** inactive

**Q.** What about the inhibition (RKO [24]) of the same molecule?
**A.** Active

**Q.** And the Activity (NCI-H508 [25])?
**A.** Active

**Q.** What about the Activity (RKO [26]) of the same molecule?
**A.** Active

**Q.** What about the Activity (SW-620 [27]) of the same molecule?
**A.** Active

**Q.** And the Activity (HT-29 [28])?
**A.** Active

**Q.** And the Activity (LoVo [29])?
**A.** Active

**Q.** And the Activity (T84 [30])?
**A.** Active

**Q.** What about the selectivity ratio at 72 h [31] of the same molecule?
**A.** 1.8 to 9.9

**Q.** And the selectivity ratio at 72 h [32]?
**A.** 1.8 to 9.9

**Q.** What about the selectivity ratio at 72 h [33] of the same molecule?
**A.** 1.8 to 9.9

**Q.** And the selectivity ratio at 72 h [34]?
**A.** 1.8 to 9.9

**Q.** What about the selectivity ratio at 72 h [35] of the same molecule?
**A.** 1.8 to 9.9

**Q.** What about the selectivity ratio at 72 h [36] of the same molecule?
**A.** 1.8 to 9.9

**Q.** What about the IC50 (NHDF) of the same molecule?
**A.** 6900 nM

**Q.** What about the IC50 (NCI-H508 [37]) of the same molecule?
**A.** 4000 nM

**Q.** And the IC50 (RKO [38])?
**A.** 700 nM

**Q.** What about the IC50 (HT-29 [39]) of the same molecule?
**A.** 3400 nM

**Q.** What about the IC50 (SW-620 [40]) of the same molecule?
**A.** 800 nM

**Q.** And the IC50 (LoVo [41])?
**A.** 1100 nM

**Q.** What about the IC50 (T84 [42]) of the same molecule?
**A.** 1800 nM
